Experimental data as given in patent EP4678644A1, “SUBSTITUTED DIHYDROTHIENOPYRIMIDINE COMPOUND, PREPARATION METHOD THEREFOR, AND USE THEREOF” (Shanghai Yidi Biotechnology Co., Ltd., priority 2023, dated 2024).
pIC50: −log10 of the molar value.

How the values were obtained:
[1] = target: T1, PDE4B2 (Homo sapiens, UniProt Q07343); experiment: PDE4B2 cell experiment (cAMP, Eu-cAMP tracer / Ulight-anti-cAMP); format: cell-based; details: Flpin-293-PDE4B2 cells; for Cell Inhibition% @1 nM / inhibition at 0.001 µM: 1 nM; for Cell Inhibition% @10 nM / inhibition at 0.01 µM: 10 nM; for Cell Inhibition% @100 nM / inhibition at 0.1 µM: 100 nM; for pIC50: Foskolin
T1 construct: expressed in transfected cells; host or cells: Flp-In-293 (Flpin-293-PDE4B2 [sic])
T1 sequence (Q07343 1-564 isoform Q07343-2): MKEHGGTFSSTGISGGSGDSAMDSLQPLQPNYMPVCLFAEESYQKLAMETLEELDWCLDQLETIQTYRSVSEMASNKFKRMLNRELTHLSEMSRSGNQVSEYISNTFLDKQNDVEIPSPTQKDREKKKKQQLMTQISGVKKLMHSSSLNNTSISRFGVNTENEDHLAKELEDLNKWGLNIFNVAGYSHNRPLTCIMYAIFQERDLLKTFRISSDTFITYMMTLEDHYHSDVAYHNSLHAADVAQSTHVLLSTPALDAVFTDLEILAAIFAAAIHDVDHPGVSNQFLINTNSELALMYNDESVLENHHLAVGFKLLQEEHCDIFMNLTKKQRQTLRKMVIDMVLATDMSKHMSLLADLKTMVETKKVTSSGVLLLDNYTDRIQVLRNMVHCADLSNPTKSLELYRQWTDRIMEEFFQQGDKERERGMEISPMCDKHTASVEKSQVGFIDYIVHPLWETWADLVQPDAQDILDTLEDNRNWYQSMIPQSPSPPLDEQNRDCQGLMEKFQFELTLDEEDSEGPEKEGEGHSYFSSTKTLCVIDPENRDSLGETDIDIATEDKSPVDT

[2] = target: T1, PDE4B2; experiment: PDE4B2 enzyme experiment (AMP-glo, cAMP substrate); format: biochemical; details: for inhibition at 0.01 µM: read-out: PDE4B2 Enzyme Inhibition% @10 nM; for inhibition at 0.1 µM: read-out: PDE4B2 Enzyme Inhibition% @100 nM; for inhibition at 0.001 µM: read-out: PDE4B2 Enzyme Inhibition% @1 nM
Experimental: All compounds were dissolved in DMSO into 10 mM or 20 mM stock solutions. The compound to be tested was diluted with DMSO in a 3-fold gradient. 20 nL/well of the compound or a DMSO control was transferred to a 384-well plate by using Echo 550 instrument. The plate was sealed with a membrane and centrifuged for 1 minute. A 2x enzyme solution was prepared with an assay buffer, and 2 uL/well of the 2x enzyme solution was added, followed by equilibration at room temperature for 10 minutes. A 2x Cyclic-3',5'-AMP substrate solution was prepared with an assay buffer, and 2 uL/well of the 2x substrate solution was added, followed by incubation at room temperature for 60 minutes. 4 uL of AMP-glo reagent was added, followed by incubation at room temperature for 60 minutes. 8 ul of an AMP detection solution was added, followed by incubation at room temperature for 60 minutes. An RLU value was read on Envision 2105 plate reader. The RLU value represents the concentration of the product AMP. Inhibition rate % ^= (1 - (RLUpositive control - RLUcompound)/(RLUpositive control - RLUnegative control)) * 100. The IC50 value was then caulculated by Graphpad 8.0 software using Y = Bottom + (Top - Bottom)/(1 + 10^((LogIC50 - X) * HillSlope)).

Compound | Cell Inhibition% @1 nM [1] [%] | Cell Inhibition% @10 nM [1] [%] | Cell Inhibition% @100 nM [1] [%] | other results
Cc1ccc2c(c1)OC[C@H]1CN(c3nc4c(c(NC5(CO)CCC5)n3)[S+]([O-])CC4)CC[C@H]21 (stereo partly drawn) [Compound 112] | 12.30 | 54.08 | 99.44 | 
O=[N+]([O-])c1ccc2c(c1)CN(c1nc3c(c(NC4(CO)CCC4)n1)[S+]([O-])CC3)C2 (stereo not drawn) [Compound 61] |  | 17.7 | 55.2 | PDE4B2 Enzyme Inhibition% @10 nM [2]: 70.90%; PDE4B2 Enzyme Inhibition% @100 nM [2]: 98.20%
[O-][S+]1CCc2nc(N3CCc4nc(Br)sc4C3)nc(NC3(CO)CCC3)c21 (stereo not drawn) [Compound 63] |  | 31.1 | 76.6 | pIC50 [2]: 8.38
[O-][S@+]1CCc2nc(N3CCc4c(ccc5[nH]ncc45)C3)nc(NC3(CO)CCC3)c21 [Compound 118, (R)-4-((1-(hydroxymethyl)cyclobutyl)amino)-2-(3,6,8,9-tetrahydro-7H-pyrazolo[4,3-f]isoquinolin-7-yl)-6,7-dihydrothieno[3,2-d]pyrimidine 5-oxide] |  |  |  | inhibition at 0.001 µM [1]: 11.1%; inhibition at 0.01 µM [1]: 41.7%; inhibition at 0.1 µM [1]: 89%
Cn1c(=O)c2c(c3ccc(Cl)cc31)CCN(c1nc3c(c(NC4(CO)CCC4)n1)[S@+]([O-])CC3)C2 [Compound 45, (R)-8-chloro-3-(4-((1-(hydroxymethyl)cyclobutyl)amino)-5-oxido-6,7-dihydrothieno[3,2-d]pyrimidin-2-yl)-6-methyl-2,3,4,6-tetrahydrobenzo[c][2,7]naphthyridin-5(1H)-one] |  |  |  | inhibition at 0.01 µM [2]: 99.8%; inhibition at 0.1 µM [2]: 100%; pIC50 [1]: 8.40
[O-][S+]1CCc2nc(N3CC[C@@H]4c5ccc(F)cc5OC[C@H]4C3)nc(NC3(CO)CCC3)c21 (stereo partly drawn) [Compound 109] | 17.70 | 65.40 | 97.85 | 
COc1ccc2c(c1)CCN(c1nc3c(c(NC4(CO)CCC4)n1)[S+]([O-])CC3)CC2 (stereo not drawn) [Compound 47] |  |  |  | PDE4B2 Enzyme Inhibition% @10 nM [2]: 98.41%; PDE4B2 Enzyme Inhibition% @100 nM [2]: 100.06%; pIC50 [1]: 8.20
[O-][S+]1CCc2nc(N3CCc4cc(N5CC(F)(F)C5)ccc4C3)nc(NC3(CO)CCC3)c21 (stereo not drawn) [Compound 88] | 3.67 | 28.76 | 93.47 | 
[O-][S+]1CCc2nc(N3CCc4ccsc4C3)nc(NC3(CO)CCC3)c21 (stereo not drawn) [Compound 36] |  | 18.10 | 66.60 | PDE4B2 Enzyme Inhibition% @10 nM [2]: 74.54%; PDE4B2 Enzyme Inhibition% @100 nM [2]: 99.04%
[O-][S@+]1CCc2nc(N3CCc4scc(Br)c4C3)nc(NC3(CO)CCC3)c21 [Compound 57, (R)-2-(3-bromo-6,7-dihydrothieno[3,2-c]pyridin-5(4H)-yl)-4-((1-(hydroxymethyl)cyclobutyl)amino)-6,7-dihydrothieno[2,2-d]pyrimidine 5-oxide] |  |  |  | inhibition at 0.001 µM [2]: 38.9%; inhibition at 0.01 µM [2]: 90.5%; inhibition at 0.1 µM [2]: 100%; inhibition at 0.001 µM [1]: 11.8%; inhibition at 0.01 µM [1]: 14.9%; inhibition at 0.1 µM [1]: 71.6%
Cn1cnc2c1CN(c1nc3c(c(NC4(CO)CCC4)n1)[S@+]([O-])CC3)CC2 [Compound 38, (R)-4-((1-(hydroxymethyl)cyclobutyl)amino)-2-(3-methyl-3,4,6,7-tetrahydro-5H-imidazo[4,5-c]pyridin-5-yl)-6,7-dihydrothieno[3,2-d]pyrimidine-5-oxide] |  |  |  | inhibition at 0.01 µM [2]: 35.4%; inhibition at 0.1 µM [2]: 84.7%; inhibition at 0.01 µM [1]: 20.3%; inhibition at 0.1 µM [1]: 38.2%
[O-][S+]1CCc2nc(N3CCc4ccc(Cl)cc4CC3)nc(NC3(CO)CCC3)c21 (stereo not drawn) [Compound 34] |  | 14 | 62 | pIC50 [2]: 8.71
COc1ccc2c(c1)OC[C@H]1CN(c3nc4c(c(NC5(CO)CCC5)n3)[S+]([O-])CC4)CC[C@H]21 (stereo partly drawn) [Compound 110] | 18.98 | 76.13 | 100.03 | 
Cn1cc2c(n1)CN(c1nc3c(c(NC4(CO)CCC4)n1)[S+]([O-])CC3)CC2 (stereo not drawn) [Compound 30] |  | 11.30 | 48.00 | 
[O-][S+]1CCc2nc(N3CCc4cnc(Cl)cc4C3)nc(NC3(CO)CCC3)c21 (stereo not drawn) [Compound 79] | 1.99 | 11.19 | 59.37 | pIC50 [2]: 8.04
[O-][S@@+]1CCc2nc(N3CCc4nn5cc(Cl)cnc5c4C3)nc(NC3(CO)CCC3)c21 [Compound 3] |  |  |  | pIC50 [2]: 6.03
CN1CC=C(c2ccc3c(c2)CCN(c2nc4c(c(NC5(CO)CCC5)n2)[S@+]([O-])CC4)C3)C1 [Compound 169, (R)-4-((1-(hydroxymethyl)cyclobutyl)amino)-2-(6-(1-methyl-2,5-dihydro-1H-pyrrol-3-yl)-3,4-dihydroisoquinolin-2(1H)-yl)-6,7-dihydrothieno[3,2-d]pyrimidine 5-oxide] |  |  |  | inhibition at 0.01 µM [2]: 20.4%; inhibition at 0.1 µM [2]: 78.8%; inhibition at 0.001 µM [1]: 4.67%; inhibition at 0.01 µM [1]: 48.6%; inhibition at 0.1 µM [1]: 96.7%
[O-][S@+]1CCc2nc(N3CC[C@H]4c5ncc(Cl)cc5OC[C@@H]4C3)nc(NC3(CO)CCC3)c21 [Compound 114, (R)-2-((6aS,10aR)-3-chloro-6a,9,10,10-tetrahydro-6H-pyrano[3,2-b:5,4-c']dipyridin-8(7H)-yl)-4-((1-(hydroxymethyl)cyclobutyl)amino)-6,7-dihydrothieno[3,2-d]pyrimidine 5-oxide] |  |  |  | inhibition at 0.001 µM [1]: -1.54%; inhibition at 0.01 µM [1]: 8.74%; inhibition at 0.1 µM [1]: 54.5%

Compound | Cell Inhibition% @1 nM [1] [%] | Cell Inhibition% @10 nM [1] [%] | Cell Inhibition% @100 nM [1] [%] | other results
[O-][S+]1CCc2nc(N3CCc4scnc4C3)nc(NC3(CO)CCC3)c21 (stereo not drawn) [Compound 17] |  |  |  | pIC50 [2]: 6.33
[O-][S+]1CCc2nc(N3CC[C@H]4c5cnc(Cl)cc5OC[C@@H]4C3)nc(NC3(CO)CCC3)c21 (stereo partly drawn) [Compound 117] | 5.32 | 17.32 | 61.63 | 
NC(=O)c1ccc2c(c1)CCN(c1nc3c(c(NC4(CO)CCC4)n1)[S+]([O-])CC3)C2 (stereo not drawn) [Compound 75] | 4.93 | 24.88 | 51.36 | pIC50 [2]: 9.09
[O-][S@+]1CCc2nc(N3CCc4cc(N5CCCC5)cnc4C3)nc(NC3(CO)CCC3)c21 [Compound 184, (R)-4-((1-(hydroxymethyl)cyclobutyl)amino)-2-(3-(pyrrolidin-1-yl)-5,8-dihydro-1,7-naphthyridin-7(6H)-yl)-6,7-dihydrothieno[3,2-d]pyrimidine 5-oxide] |  |  |  | inhibition at 0.001 µM [1]: 36.5%; inhibition at 0.01 µM [1]: 94.3%; inhibition at 0.1 µM [1]: 100%
[O-][S+]1CCc2nc(N3CCc4cc(Cl)c(F)cc4C3)nc(NC3(CO)CCC3)c21 (stereo not drawn) [Compound 96] | -2.7 | 15.7 | 84.8 | 
O=C1CCCN1c1ccc2c(c1)CCN(c1nc3c(c(NC4(CO)CCC4)n1)[S+]([O-])CC3)C2 (stereo not drawn) [Compound 87] | 2.90 | 31.33 | 89.06 | 
[O-][S+]1CCc2nc(N3CCC4=C(COc5ccccc54)C3)nc(NC3(CO)CCC3)c21 (stereo not drawn) [Compound 97] | 1.66 | 17.36 | 86.54 | 
[O-][S+]1CCc2nc(N3CC[C@@H]4c5ccc(Br)cc5OC[C@H]4C3)nc(NC3(CO)CCC3)c21 (stereo partly drawn) [Compound 115] | 7.72 | 39.69 | 97.73 | 
[O-][S+]1CCc2nc(N3CCc4cc(F)c(F)cc4C3)nc(NC3(CO)CCC3)c21 (stereo not drawn) [Compound 95] | -4.2 | 6.8 | 66.7 | 
[O-][S@+]1CCc2nc(N3CCc4c(Br)csc4C3)nc(NC3(CO)CCC3)c21 [Compound 54, (R)-2-(3-bromo-4,7-dihydrothieno[2,3-c]pyridin-6(5H)-yl)-4-((1-(hydroxymethyl)cyclobutyl)amino)-6,7-dihydrothieno[3,2-d]pyrimidine 5-oxide] |  |  |  | inhibition at 0.001 µM [2]: 9.28%; inhibition at 0.01 µM [2]: 58.9%; inhibition at 0.1 µM [2]: 96.6%
[O-][n+]1cc2c(c3ccc(Cl)cc31)CCN(c1nc3c(c(NC4(CO)CCC4)n1)[S+]([O-])CC3)C2 (stereo not drawn) [Compound 106] | 0.41 | 21.18 | 67.52 | 
Cn1nc(Cl)c2c3c(cnc21)CN(c1nc2c(c(NC4(CO)CCC4)n1)[S+]([O-])CC2)CC3 (stereo not drawn) [Compound 105] | 7.53 | 42.53 | 93.48 | 
[O-][S+]1CCc2nc(N3CCc4cc(-c5ncco5)ccc4C3)nc(NC3(CO)CCC3)c21 (stereo not drawn) [Compound 84] | 32.85 | 96.96 | 100.72 | 
[O-][S@+]1CCc2nc(N3CC[C@@H]4c5ccncc5OC[C@H]4C3)nc(NC3(CO)CCC3)c21 [Compound 113, (R)-4-((1-(hydroxymethyl)cyclobutyl)amino)-2-((6aR,10aS)-6a,9,10,10-tetrahydro-6H-pyrano[2,3-c:5,4-c']dipyridin-8(7H)-yl)-6,7-dihydrothieno[3,2-d]pyrimidine 5-oxide] |  |  |  | inhibition at 0.001 µM [1]: 5.01%; inhibition at 0.01 µM [1]: 22.8%; inhibition at 0.1 µM [1]: 71.9%
Nc1nc2cc(Cl)ccc2c2c1CN(c1nc3c(c(NC4(CO)CCC4)n1)[S+]([O-])CC3)CC2 (stereo not drawn) [Compound 102] | -0.08 | 35.86 | 95.46 | 
[O-][S+]1CCc2nc(N3CC[C@@H]4c5ccc(C(F)(F)F)cc5OC[C@H]4C3)nc(NC3(CO)CCC3)c21 (stereo partly drawn) [Compound 111] | 8.07 | 22.21 | 81.06 | 
Cn1cc2c(n1)CCN(c1nc3c(c(NC4(CO)CCC4)n1)[S+]([O-])CC3)C2 (stereo not drawn) [Compound 31] |  |  |  | pIC50 [2]: 8.13
